Earlier results, collected in patent US20230218541A1, “Enhanced Moisturizing Lotion Compositions” (priority 2019, published 2023).

Tested on: coronaviruses, including SARS-CoV-2, SARS-CoV, MERS-CoV, and HCoVs
Conditions: 62% to 71% ethanol, 0.5% hydrogen peroxide or 0.1% sodium hypochlorite

SMILES	Time to efficient inactivation of coronaviruses on contact with surface disinfectant
CCO [ethanol]	one
OO [hydrogen peroxide]	one
OCl [sodium hypochlorite]	one
